Data: patent US12371454B2, “Cyclic peptide compound having Kras inhibitory action” (priority 2019, dated 2025)
Starred links: 1 amine or outer side, 2 acyl side, 3 side chain; linkers in the order of their positions; H or OH if unused. Positions of bridges follow the written chain, without caps; N, C: chain ends. Non-standard residues stand in square brackets, D forms with d. Residues, ends and D or L forms follow the SMILES beside them. *: point of attachment. NMeAbu(3,3-F2-piperidino) = CN[C@@H](CCN1CCCC(F)(F)C1)C(=O)O; hPhe(3-Cl-4-CF3) = N[C@@H](CCc1ccc(C(F)(F)F)c(Cl)c1)C(=O)O; hPhe(3-F,4-CF3) = N[C@@H](CCc1ccc(C(F)(F)F)c(F)c1)C(=O)O; NMePhe(4-CF3) = CN[C@@H](Cc1ccc(C(F)(F)F)cc1)C(=O)O; NMePhe(4-Me) = CN[C@@H](Cc1ccc(C)cc1)C(=O)O; NMedβ3hAla = C[C@H](CC(=O)[*:2])N(C)[*:1]; NMeNva(5,5-F2) = CN[C@@H](CCC(F)F)C(=O)O; NMeGly(cPent) = CN[C@H](C(=O)O)C1CCCC1; NMeCha = CN[C@@H](CC1CCCCC1)C(=O)O; NMeGly(cPr) = CN[C@H](C(=O)O)C1CC1; Ala(cPr) = N[C@@H](CC1CC1)C(=O)O; NMeChg = CN[C@H](C(=O)O)C1CCCCC1; NMeF = CN[C@@H](Cc1ccccc1)C(=O)O; NMeI = CC[C@H](C)[C@H](NC)C(=O)O; NMeD = CN[C@@H](CC(=O)O)C(=O)O; dNMeD = CN[C@H](CC(=O)O)C(=O)O; NMeL = CN[C@@H](CC(C)C)C(=O)O; Chg = N[C@H](C(=O)O)C1CCCCC1; NMeV = CN[C@H](C(=O)O)C(C)C; d(β3hA) = C[C@@H](N)CC(=O)O; NMeA = CN[C@@H](C)C(=O)O; NMeAib = CNC(C)(C)C(=O)O; Piperidide = C1CCN(*)CC1; Pyrrolidide = C1CCN(*)C1; Ac5c = NC1(C(=O)O)CCCC1; Aze = O=C(O)[C@@H]1CCN1; Sar = CNCC(=O)O

Molecular target: T1, Kras and SOS1 (biotin-tagged human Kras loaded with GDP, His-tagged human SOS1) (Homo sapiens, UniProt P01116, G12D)
T1 construct: made in house; host or cells: E. coli (stated for Kras only)
Experiment: Protein-protein interaction inhibition between Kras and SOS1 (KrasGl2D-SOS PPI) using AlphaScreen
Assay type: binding
Conditions: AlphaScreen; biotin-tagged human Kras loaded with GDP, His-tagged human SOS1; read-out: KRAS G12D-SOS PPI IC50
How it was run: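 Donor beads (nickel) hold His-SOS1; acceptor beads (streptavidin) hold biotin-Kras bound to GDP. Signal measured at 520-620 nm following 680 nm excitation.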

T1 sequence (P01116 1-188 isoform P01116-2 G12D): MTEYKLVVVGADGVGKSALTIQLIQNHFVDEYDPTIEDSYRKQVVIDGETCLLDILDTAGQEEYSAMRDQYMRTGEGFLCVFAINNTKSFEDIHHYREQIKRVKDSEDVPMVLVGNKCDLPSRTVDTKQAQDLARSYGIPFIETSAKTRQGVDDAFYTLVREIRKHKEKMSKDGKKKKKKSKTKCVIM

Row | SMILES | IC50 [nM]
1 | CC[C@H](C)[C@@H]1NC(=O)[C@H](CC(C)C)N(C)C(=O)C[C@@H](C(=O)N(C)C)N(C)C(=O)[C@H](C2CCCC2)N(C)C(=O)[C@H](C(C)C)NC(=O)[C@H](CCN2CCCC(F)(F)C2)N(C)C(=O)[C@H](CCc2ccc(C(F)(F)F)c(Cl)c2)NC(=O)CN(C)C(=O)[C@H](CC2CCCCC2)N(C)C(=O)[C@@H]2CCN2C(=O)[C@H](C)N(C)C1=O [Compound 389] ([NMeL]I[NMeA][Aze][NMeCha][Sar][hPhe(3-Cl-4-CF3)][NMeAbu(3,3-F2-piperidino)]V[NMeGly(cPent)][NMeD]-NMe2; lactam N-11) | 45
2 | CC[C@H](C)[C@@H]1NC(=O)[C@H](CC(C)C)N(C)C(=O)C[C@@H](C(=O)N2CCCCC2)N(C)C(=O)[C@H](C(C)C)N(C)C(=O)C2(CCCC2)NC(=O)[C@@H]2CCCN2C(=O)[C@H](CCc2ccc(C(F)(F)F)c(Cl)c2)NC(=O)CN(C)C(=O)[C@H](CC2CCCCC2)N(C)C(=O)[C@@H]2CCN2C(=O)[C@H](C2CC2)N(C)C1=O [Compound 1553] ([NMeL]I[NMeGly(cPr)][Aze][NMeCha][Sar][hPhe(3-Cl-4-CF3)]P[Ac5c][NMeV][NMeD]-Piperidide; lactam N-11) | 12
3 | CC(C)C[C@H]1C(=O)N[C@@H](C2CCCCC2)C(=O)N(C)CC(=O)N(C)CC(=O)N(C)[C@@H](CC2CCCCC2)C(=O)N(C)CC(=O)N[C@@H](CCc2ccc(C(F)(F)F)c(F)c2)C(=O)N2CCC[C@H]2C(=O)NC2(CCCC2)C(=O)N(C)[C@@H](CC(C)C)C(=O)N[C@H](C)CC(=O)N1C [Compound 1527] (cyclo([Ac5c][NMeL][d(β3hA)][NMeL][Chg][Sar][Sar][NMeCha][Sar][hPhe(3-F,4-CF3)]P)) | 190
4 | CC[C@H](C)[C@@H]1NC(=O)[C@H](C)N(C)C(=O)C[C@@H](C)NC(=O)[C@H](C(C)C)N(C)C(=O)C2(CCCC2)NC(=O)[C@@H]2CCCN2C(=O)[C@H](CCc2ccc(C(F)(F)F)c(Cl)c2)NC(=O)[C@H]2CCCN2C(=O)[C@H](Cc2ccccc2)N(C)C(=O)[C@@H]2CCCN2C(=O)CN(C)C1=O [Compound 1730] (cyclo([Ac5c][NMeV][d(β3hA)][NMeA]I[Sar]P[NMeF][dP][hPhe(3-Cl-4-CF3)]P)) | 35
5 | CC[C@H](C)[C@@H]1NC(=O)[C@H](CC(C)C)N(C)C(=O)C[C@@H](C)NC(=O)[C@H](C2CCCC2)N(C)C(=O)C2(CCCC2)NC(=O)[C@H](C)NC(=O)[C@H](CCc2ccc(C(F)(F)F)c(Cl)c2)NC(=O)CN(C)C(=O)[C@H](Cc2ccc(C)cc2)N(C)C(=O)[C@@H]2CCN2C(=O)[C@H](C)N(C)C1=O [Compound 1307] (cyclo(A[Ac5c][NMeGly(cPent)][d(β3hA)][NMeL]I[NMeA][Aze][NMePhe(4-Me)][Sar][hPhe(3-Cl-4-CF3)])) | 2.7
6 | CC[C@H](C)[C@@H]1NC(=O)[C@H](CC(C)C)N(C)C(=O)C[C@@H](C(=O)N(C)C)N(C)C(=O)[C@H]([C@@H](C)CC)N(C)C(=O)C2(CCCC2)NC(=O)[C@H](CCC(F)F)N(C)C(=O)[C@H](CCc2ccc(C(F)(F)F)c(Cl)c2)NC(=O)CN(C)C(=O)[C@H](Cc2ccc(C)cc2)N(C)C(=O)[C@@H]2CCN2C(=O)[C@H](C)N(C)C1=O [Compound 1898] ([NMeL]I[NMeA][Aze][NMePhe(4-Me)][Sar][hPhe(3-Cl-4-CF3)][NMeNva(5,5-F2)][Ac5c][NMeI][NMeD]-NMe2; lactam N-11) | 0.93
7 | CC[C@H](C)[C@@H]1NC(=O)[C@H](CC(C)C)N(C)C(=O)C[C@H](C(=O)N2CCCC2)N(C)C(=O)[C@H](C2CCCCC2)N(C)C(=O)C2(CCCC2)NC(=O)[C@@H]2CCCN2C(=O)[C@H](CCc2ccc(C(F)(F)F)c(Cl)c2)NC(=O)CN(C)C(=O)[C@H](CC2CCCCC2)N(C)C(=O)CN(C)C(=O)CN(C)C1=O [Compound 1781] ([NMeL]I[Sar][Sar][NMeCha][Sar][hPhe(3-Cl-4-CF3)]P[Ac5c][NMeChg][dNMeD]-Pyrrolidide; lactam N-11) | 49
8 | CC[C@H](C)[C@@H]1NC(=O)[C@H](CC(C)C)N(C)C(=O)C[C@@H](C)N(C)C(=O)[C@H](CC(C)C)NC(=O)C(C)(C)N(C)C(=O)[C@H](CC(C)C)NC(=O)[C@H](CCc2ccc(C(F)(F)F)c(Cl)c2)NC(=O)CN(C)C(=O)[C@H](Cc2ccc(C(F)(F)F)cc2)N(C)C(=O)[C@@H]2CCN2C(=O)[C@H](C)N(C)C1=O [Compound 1401] (cyclo([Aze][NMePhe(4-CF3)][Sar][hPhe(3-Cl-4-CF3)]L[NMeAib]L[NMedβ3hAla][NMeL]I[NMeA])) | 120
9 | CC(C)C[C@H]1C(=O)N[C@@H](CC2CC2)C(=O)N(C)CC(=O)N(C)CC(=O)N(C)[C@@H](CC2CCCCC2)C(=O)N(C)CC(=O)N[C@@H](CCc2ccc(C(F)(F)F)c(Cl)c2)C(=O)N2CCC[C@H]2C(=O)NC2(CCCC2)C(=O)N(C)[C@@H](C(C)C)C(=O)N[C@H](C)CC(=O)N1C [Compound 550] (cyclo([Ac5c][NMeV][d(β3hA)][NMeL][Ala(cPr)][Sar][Sar][NMeCha][Sar][hPhe(3-Cl-4-CF3)]P)) | 110
